For 13 compounds, Ki results are on record in ChEMBL document CHEMBL3992518, “Peptide Macrocycle Inhibitor of Coagulation Factor XII with Subnanomolar Affinity and High Target Selectivity” (J Med Chem, 2017).

SMILES strings stand for the structures. *1 amine or outer side, *2 acyl side, *3 side chain or, on linkers, in order; H or OH if unused. Where a SMILES comes first, the peptide text is derived from it. Bridges are numbered along the chain shown (N, C = ends). [ ]: non-standard residue; d: D form. TATA = O=C(CC[*:1])N1CN(C(=O)CC[*:2])CN(C(=O)CC[*:3])C1; hArg = N=C(N)NCCCC[C@H](N)C(=O)O; Agb = N=C(N)NCC[C@H](N)C(=O)O; hLeu = CC(C)CC[C@H](N)C(=O)O

For this assay, the target named is T1, Coagulation factor XII (Homo sapiens, UniProt P00748).
T1 sequence (P00748 whole entry): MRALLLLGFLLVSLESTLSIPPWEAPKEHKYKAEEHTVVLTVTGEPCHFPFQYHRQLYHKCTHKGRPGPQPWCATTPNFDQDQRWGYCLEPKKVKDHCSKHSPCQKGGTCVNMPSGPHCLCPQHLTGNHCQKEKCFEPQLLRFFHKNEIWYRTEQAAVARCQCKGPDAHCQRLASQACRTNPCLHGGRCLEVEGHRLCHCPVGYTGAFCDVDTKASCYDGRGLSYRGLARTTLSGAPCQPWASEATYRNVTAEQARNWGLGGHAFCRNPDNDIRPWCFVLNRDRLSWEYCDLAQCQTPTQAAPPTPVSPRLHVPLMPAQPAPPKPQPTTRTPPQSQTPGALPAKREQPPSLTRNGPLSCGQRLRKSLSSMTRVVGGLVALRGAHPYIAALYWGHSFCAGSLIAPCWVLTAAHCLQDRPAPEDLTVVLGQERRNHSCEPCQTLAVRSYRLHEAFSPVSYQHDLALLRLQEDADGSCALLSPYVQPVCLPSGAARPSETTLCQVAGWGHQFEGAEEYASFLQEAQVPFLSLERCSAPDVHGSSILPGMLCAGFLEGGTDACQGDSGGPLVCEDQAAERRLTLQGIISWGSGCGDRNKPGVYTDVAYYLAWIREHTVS
Nature of the assay: Inhibition of human beta factor 12a using fluorogenic substrate Boc-Gln-Gly-Arg-AMC preincubated for 10 mins followed by addition of substrate measured every min for 30 mins.
The term Ki denotes a dissociation constant, usually derived from enzyme kinetics or from competition with a known ligand. Read a low Ki as tighter binding. As to `CC(C)C[C@@H]1NC(=O)[C@H](CCC(N)=O)NC(=O)[C@H](CCCNC(=N)N)NC(=O)[C@@H]2CSCCC(=O)N3CN(CN(C3)C(=O)CCSC[C@H](NC(=O)[C@@H](N)CCCNC(=N)N)C(=O)N[C@@H](Cc3ccc4ccccc4c3)C(=O)N[C@@H](CCCNC(=N)N)C(=O)N[C@@H](CC(C)C)C(=O)N3CCC[C@H]3C(=O)N2)C(=O)CCSC[C@@H](C(=O)N[C@@H](CCCNC(=N)N)C(=O)N[C@@H](Cc2c[nH]c3ccccc23)C(=O)O)NC(=O)[C@H](CCCNC(=N)N)NC1=O`, the affinity corresponds to a Ki of 6 nM. On to `Cc1ccccc1C[C@@H]1NC(=O)[C@@H](NC(=O)[C@@H](N)CCCNC(=N)N)CSCCC(=O)N2CN3CN(C2)C(=O)CCSC[C@H](NC(=O)[C@@H]2CCCN2C(=O)[C@H](CC(C)C)NC(=O)[C@H](CCCNC(=N)N)NC1=O)C(=O)N[C@@H](CCCNC(=N)N)C(=O)N[C@@H](CCC(N)=O)C(=O)N[C@@H](CC(C)C)C(=O)N[C@@H](CCCNC(=N)N)C(=O)N[C@H](C(=O)N[C@@H](CCCNC(=N)N)C(=O)N[C@@H](Cc1c[nH]c2ccccc12)C(=O)O)CSCCC3=O`, for which the Ki is 40 nM.

The compound `CSCC[C@@H]1NC(=O)[C@H](CCC(N)=O)NC(=O)[C@H](CCCNC(=N)N)NC(=O)[C@@H]2CSCCC(=O)N3CN(CN(C3)C(=O)CCSC[C@H](NC(=O)[C@@H](N)CCCNC(=N)N)C(=O)N[C@@H](Cc3ccccc3)C(=O)N[C@@H](CCCNC(=N)N)C(=O)N[C@@H](CC(C)C)C(=O)N3CCC[C@H]3C(=O)N2)C(=O)CCSC[C@@H](C(=O)N[C@@H](CCCNC(=N)N)C(=O)N[C@@H](Cc2c[nH]c3ccccc23)C(=O)O)NC(=O)[C@H](CCCNC(=N)N)NC1=O` (H-RCFRLPCRQMRCRW-OH; linker 2-7-12 via TATA) gave a Ki of 143 nM. In the case of `CC(C)C[C@@H]1NC(=O)[C@H](CCC(N)=O)NC(=O)[C@H](CCCNC(=N)N)NC(=O)[C@@H]2CSCCC(=O)N3CN(CN(C3)C(=O)CCSC[C@H](NC(=O)[C@@H](N)CCCNC(=N)N)C(=O)N[C@@H](Cc3ccccc3)C(=O)N[C@@H](CCNC(=N)N)C(=O)N[C@@H](CC(C)C)C(=O)N3CCC[C@H]3C(=O)N2)C(=O)CCSC[C@@H](C(=O)N[C@@H](CCCNC(=N)N)C(=O)N[C@@H](Cc2c[nH]c3ccccc23)C(=O)O)NC(=O)[C@H](CCCNC(=N)N)NC1=O` (H-RCF[Agb]LPCRQLRCRW-OH; linker 2-7-12 via TATA), the Ki came to 156 nM. The Ki values of the last two compounds are within 1.5-fold of each other. `CC(C)CC[C@@H]1NC(=O)[C@H](CCCNC(=N)N)NC(=O)[C@H](Cc2ccccc2)NC(=O)[C@@H](NC(=O)[C@@H](N)CCCNC(=N)N)CSCCC(=O)N2CN3CN(C2)C(=O)CCSC[C@H](NC(=O)[C@@H]2CCCN2C1=O)C(=O)N[C@@H](CCCNC(=N)N)C(=O)N[C@@H](CCC(N)=O)C(=O)N[C@@H](CC(C)C)C(=O)N[C@@H](CCCNC(=N)N)C(=O)N[C@H](C(=O)N[C@@H](CCCNC(=N)N)C(=O)N[C@@H](Cc1c[nH]c2ccccc12)C(=O)O)CSCCC3=O` (H-RCFR[hLeu]PCRQLRCRW-OH; linker 2-7-12 via TATA) gave a Ki of 2700 nM.

As for `CC(C)C[C@@H]1NC(=O)[C@H](CCC(N)=O)NC(=O)[C@H](CCCNC(=N)N)NC(=O)[C@@H]2CSCCC(=O)N3CN(CN(C3)C(=O)CCSC[C@H](NC(=O)[C@@H](N)CCCNC(=N)N)C(=O)N[C@@H](Cc3cccnc3)C(=O)N[C@@H](CCCNC(=N)N)C(=O)N[C@@H](CC(C)C)C(=O)N3CCC[C@H]3C(=O)N2)C(=O)CCSC[C@@H](C(=O)N[C@@H](CCCNC(=N)N)C(=O)N[C@@H](Cc2c[nH]c3ccccc23)C(=O)O)NC(=O)[C@H](CCCNC(=N)N)NC1=O`, the Ki came to 3 nM. The value for `CC(C)C[C@@H]1NC(=O)[C@H](CCC(N)=O)NC(=O)[C@H](CCCNC(=N)N)NC(=O)[C@@H]2CSCCC(=O)N3CN(CN(C3)C(=O)CCSC[C@H](NC(=O)[C@@H](N)CCCNC(=N)N)C(=O)N[C@@H](Cc3ccc(C(C)(C)C)cc3)C(=O)N[C@@H](CCCNC(=N)N)C(=O)N[C@@H](CC(C)C)C(=O)N3CCC[C@H]3C(=O)N2)C(=O)CCSC[C@@H](C(=O)N[C@@H](CCCNC(=N)N)C(=O)N[C@@H](Cc2c[nH]c3ccccc23)C(=O)O)NC(=O)[C@H](CCCNC(=N)N)NC1=O` was over 1000 nM; that for `CC(C)C[C@@H]1NC(=O)[C@H](CCC(=O)O)NC(=O)[C@H](CCCNC(=N)N)NC(=O)[C@@H]2CSCCC(=O)N3CN(CN(C3)C(=O)CCSC[C@H](NC(=O)[C@@H](N)CCCNC(=N)N)C(=O)N[C@@H](Cc3ccccc3)C(=O)N[C@@H](CCCNC(=N)N)C(=O)N[C@@H](CC(C)C)C(=O)N3CCC[C@H]3C(=O)N2)C(=O)CCSC[C@@H](C(=O)N[C@@H](CCCNC(=N)N)C(=O)N[C@@H](Cc2c[nH]c3ccccc23)C(=O)O)NC(=O)[C@H](CCCNC(=N)N)NC1=O` (H-RCFRLPCRELRCRW-OH; linker 2-7-12 via TATA) was over 3000 nM. Then `CCCC[C@@H]1NC(=O)[C@H](CCC(N)=O)NC(=O)[C@H](CCCNC(=N)N)NC(=O)[C@@H]2CSCCC(=O)N3CN(CN(C3)C(=O)CCSC[C@H](NC(=O)[C@@H](N)CCCNC(=N)N)C(=O)N[C@@H](Cc3ccccc3)C(=O)N[C@@H](CCCNC(=N)N)C(=O)N[C@@H](CC(C)C)C(=O)N3CCC[C@H]3C(=O)N2)C(=O)CCSC[C@@H](C(=O)N[C@@H](CCCNC(=N)N)C(=O)N[C@@H](Cc2c[nH]c3ccccc23)C(=O)O)NC(=O)[C@H](CCCNC(=N)N)NC1=O`, with 30.6 nM; and `CC(C)C[C@@H]1NC(=O)[C@H](CCC(N)=O)NC(=O)[C@H](CCCNC(=N)N)NC(=O)[C@@H]2CSCCC(=O)N3CN(CN(C3)C(=O)CCSC[C@H](NC(=O)[C@@H](N)CCCNC(=N)N)C(=O)N[C@@H](Cc3ccccc3)C(=O)N[C@@H](CCCCNC(=N)N)C(=O)N[C@@H](CC(C)C)C(=O)N3CCC[C@H]3C(=O)N2)C(=O)CCSC[C@@H](C(=O)N[C@@H](CCCNC(=N)N)C(=O)N[C@@H](Cc2c[nH]c3ccccc23)C(=O)O)NC(=O)[C@H](CCCNC(=N)N)NC1=O` (H-RCF[hArg]LPCRQLRCRW-OH; linker 2-7-12 via TATA), with 71 nM; and `CC(C)C[C@@H]1NC(=O)[C@H](CCC(N)=O)NC(=O)[C@H](CCCNC(=N)N)NC(=O)[C@@H]2CSCCC(=O)N3CN(CN(C3)C(=O)CCSC[C@H](NC(=O)[C@@H](N)CCCNC(=N)N)C(=O)N[C@@H](Cc3ccc(F)cc3)C(=O)N[C@@H](CCCNC(=N)N)C(=O)N[C@@H](CC(C)C)C(=O)N3CCC[C@H]3C(=O)N2)C(=O)CCSC[C@@H](C(=O)N[C@@H](CCCNC(=N)N)C(=O)N[C@@H](Cc2c[nH]c3ccccc23)C(=O)O)NC(=O)[C@H](CCCNC(=N)N)NC1=O`, with 0.89 nM.

For `CC(C)C[C@@H]1NC(=O)[C@H](CCC(N)=O)NC(=O)[C@H](CCCNC(=N)N)NC(=O)[C@@H]2CSCCC(=O)N3CN(CN(C3)C(=O)CCSC[C@H](NC(=O)[C@@H](N)CCCNC(=N)N)C(=O)N[C@@H](CCC3CCCCC3)C(=O)N[C@@H](CCCNC(=N)N)C(=O)N[C@@H](CC(C)C)C(=O)N3CCC[C@H]3C(=O)N2)C(=O)CCSC[C@@H](C(=O)N[C@@H](CCCNC(=N)N)C(=O)N[C@@H](Cc2c[nH]c3ccccc23)C(=O)O)NC(=O)[C@H](CCCNC(=N)N)NC1=O`, affinity was put at a Ki of 290 nM. The value for `CC(C)C[C@@H]1NC(=O)[C@H](CCC(N)=O)NC(=O)[C@H](CCCNC(=N)N)NC(=O)[C@@H]2CSCCC(=O)N3CN(CN(C3)C(=O)CCSC[C@H](NC(=O)[C@@H](N)CCCNC(=N)N)C(=O)N[C@@H](Cc3ccccc3)C(=O)N[C@@H](CCCNC(=N)N)C(=O)N[C@@H](CC(C)C)C(=O)N[C@@H](CO)C(=O)N2)C(=O)CCSC[C@@H](C(=O)N[C@@H](CCCNC(=N)N)C(=O)N[C@@H](Cc2c[nH]c3ccccc23)C(=O)O)NC(=O)[C@H](CCCNC(=N)N)NC1=O` (H-RCFRLSCRQLRCRW-OH; linker 2-7-12 via TATA) was 29.4 nM.
